Test results taken from patent US6355799B1, “Substituted benzene compounds, process for their preparation, and herbicidal and defoliant compositions containing them” (ISK Americas Incorporated, priority 1997, dated 2002).

Legend:
Assay type in all cases: in vivo
[1] = tested on: ivyleaf morningglory (Ipomoea hederacea, IPOHE); test: Pre-emerge test, greenhouse herbicide activity screening; conditions: phytotoxicity rating 0-100, 14 days after application
Method in brief: (§1)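 Rating: 0–100 visual injury, 14 DAA. Application: acetone, 187 l/ha, 15–1000 g ai/ha, flat-fan track sprayer with nozzle 40–45 cm above soil or canopy. Post-emerge runs used 0.25% v/v surfactant on 2–3 leaf plants.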

[2] = tested on: large crabgrass (Digitaria sanguinalis, DIGSA); test: as above; conditions: phytotoxicity rating 0-100, 14 days after application
Method in brief: as §1

[3] = tested on: lambsquarters (Chenopodium album, CHEAL); test: as above; conditions: phytotoxicity rating 0-100, 14 days after application
Method in brief: as §1

[4] = tested on: sicklepod (Cassia obtusifolia, CASOB); test: as above; conditions: phytotoxicity rating 0-100, 14 days after application
Method in brief: as §1

[5] = tested on: velvetleaf (Abutilon theophrasti, ABUTH); test: as above; conditions: phytotoxicity rating 0-100, 14 days after application
Method in brief: as §1

[6] = tested on: barnyardgrass (Echinochloa crus-galli, ECHCG); test: as above; conditions: phytotoxicity rating 0-100, 14 days after application
Method in brief: as §1

[7] = tested on: johnsongrass (Sorghum halepense, SORHA); test: as above; conditions: phytotoxicity rating 0-100, 14 days after application
Method in brief: as §1

[8] = tested on: green foxtail (Setaria viridis, SETVI); test: as above; conditions: phytotoxicity rating 0-100, 14 days after application
Method in brief: as §1

[9] = tested on: redroot pigweed (Amaranthus retroflexus, AMARE); test: Post-emerge test, greenhouse herbicide activity screening; conditions: post-emerge, 14 days after application
Method in brief: as §1

[10] = tested on: ivyleaf morningglory (Ipomoea hederacea, IPOHE); test: as above; conditions: post-emerge, 14 days after application, rating scale 0-100
Method in brief: as §1

[11] = tested on: large crabgrass (Digitaria sanguinalis, DIGSA); test: as above; conditions: post-emerge, 14 days after application, rating scale 0-100
Method in brief: as §1

[12] = tested on: lambsquarters (Chenopodium album, CHEAL); test: as above; conditions: post-emerge, 14 days after application, rating scale 0-100
Method in brief: as §1

[13] = tested on: sicklepod (Cassia obtusifolia, CASOB); test: as above; conditions: post-emerge, 14 days after application, rating scale 0-100
Method in brief: as §1

[14] = tested on: velvetleaf (Abutilon theophrasti, ABUTH); test: as above; conditions: post-emerge, 14 days after application, rating scale 0-100
Method in brief: as §1

[15] = tested on: barnyardgrass (Echinochloa crus-galli, ECHCG); test: as above; conditions: post-emerge, 14 days after application, rating scale 0-100
Method in brief: as §1

[16] = tested on: johnsongrass (Sorghum halepense, SORHA); test: as above; conditions: post-emerge, 14 days after application, rating scale 0-100
Method in brief: as §1

[17] = tested on: green foxtail (Setaria viridis, SETVI); test: as above; conditions: post-emerge, 14 days after application, rating scale 0-100
Method in brief: as §1

[18] = tested on: redroot pigweed (Amaranthus retroflexus, AMARE); test: Pre-emerge test, greenhouse herbicide activity screening; conditions: phytotoxicity rating 0-100, 14 days after application
Method in brief: as §1

[19] = tested on: field corn (Zea mays L., var. Dekalb 535, CORN); test: Pre-emerge test, crop safety; conditions: crop damage rating 0-100, 14 days after application
Method in brief: (§2)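 Fourteen days after spraying, crop and weed injury was graded visually from 0, no effect, to 100, every plant dead. Test substances were dissolved in acetone and applied at 15–1000 g ai/ha with a flat-fan nozzle. Application was either pre-emergence, one day after sowing, or post-emergence at the 2–3 leaf stage.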

[20] = tested on: upland rice (Oryza sp., var. Tebonnet, RICE); test: Pre-emerge test, crop safety; conditions: crop damage rating 0-100, 14 days after application
Method in brief: as §2

[21] = tested on: field corn (Zea mays L., var. Dekalb 535, CORN); test: Post-emerge test, crop safety; conditions: post-emerge, 14 days after application, rating scale 0-100
Method in brief: (§3)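 Plants grown in 10 cm pots of sandy loam mix received acetone-dissolved compounds through a moving flat-fan nozzle. Doses ranged from 15 to 1000 g ai/ha. Pre-emerge pots were seeded one day earlier, post-emerge pots 8–21 days earlier. Fourteen days on, each pot was graded 0–100 for damage.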

[22] = tested on: upland rice (Oryza sp., var. Tebonnet, RICE); test: Post-emerge test, crop safety; conditions: post-emerge, 14 days after application, rating scale 0-100
Method in brief: as §3

[23] = 63 g ai/ha, rating scale 0-100 (0 no damage, 100 complete death)
[24] = 250 g ai/ha, rating scale 0-100

## COc1c(Cl)cc(F)c(-n2c(=O)cc(C(F)(F)F)n(C)c2=O)c1NC(=O)OCc1c(F)cccc1F [4-29]
[1]; 63 g ai/ha
  Pre-emerge Herbicidal Activity IPOHE: 70
[1]; 250 g ai/ha
  Pre-emerge Herbicidal Activity IPOHE: 90
[2]; 63 g ai/ha
  Pre-emerge Herbicidal Activity DIGSA: 100
[2]; 250 g ai/ha
  Pre-emerge Herbicidal Activity DIGSA: 100
[3]; 63 g ai/ha
  Pre-emerge Herbicidal Activity CHEAL: 100
[3]; 250 g ai/ha
  Pre-emerge Herbicidal Activity CHEAL: 100
[4]; 63 g ai/ha
  Pre-emerge Herbicidal Activity CASOB: 40
[4]; 250 g ai/ha
  Pre-emerge Herbicidal Activity CASOB: 80
[5]; 63 g ai/ha
  Pre-emerge Herbicidal Activity ABUTH: 100
[5]; 250 g ai/ha
  Pre-emerge Herbicidal Activity ABUTH: 100
[6]; 63 g ai/ha
  Pre-emerge Herbicidal Activity ECHCG: 70
[6]; 250 g ai/ha
  Pre-emerge Herbicidal Activity ECHCG: 90
[7]; 63 g ai/ha
  Pre-emerge Herbicidal Activity SORHA: 70
[7]; 250 g ai/ha
  Pre-emerge Herbicidal Activity SORHA: 90
[8]; 63 g ai/ha
  Pre-emerge Herbicidal Activity SETVI: 100
[8]; 250 g ai/ha
  Pre-emerge Herbicidal Activity SETVI: 100
[9]; [23]
  phytotoxicity rating AMARE: 100
[9]; [24]
  phytotoxicity rating AMARE: 100
[10]; 63 g ai/ha
  phytotoxicity rating IPOHE: 100
[10]; 250 g ai/ha
  phytotoxicity rating IPOHE: 100
[11]; 63 g ai/ha
  phytotoxicity rating DIGSA: 50
[11]; 250 g ai/ha
  phytotoxicity rating DIGSA: 90
[12]; 63 g ai/ha
  phytotoxicity rating CHEAL: 90
[12]; 250 g ai/ha
  phytotoxicity rating CHEAL: 100
[13]; 63 g ai/ha
  phytotoxicity rating CASOB: 90
[13]; 250 g ai/ha
  phytotoxicity rating CASOB: 100
[14]; 63 g ai/ha
  phytotoxicity rating ABUTH: 100
[14]; 250 g ai/ha
  phytotoxicity rating ABUTH: 100
[15]; 63 g ai/ha
  phytotoxicity rating ECHCG: 70
[15]; 250 g ai/ha
  phytotoxicity rating ECHCG: 90
[16]; 63 g ai/ha
  phytotoxicity rating SORHA: 60
[16]; 250 g ai/ha
  phytotoxicity rating SORHA: 100
[17]; 63 g ai/ha
  phytotoxicity rating SETVI: 80
[17]; 250 g ai/ha
  phytotoxicity rating SETVI: 99
[18]; 63 g ai/ha
  Pre-emerge Herbicidal Activity AMARE: 100
[18]; 250 g ai/ha
  Pre-emerge Herbicidal Activity AMARE: 100
[19]; 63 g ai/ha
  Pre-emerge Herbicidal Activity CORN: 80
[19]; 250 g ai/ha
  Pre-emerge Herbicidal Activity CORN: 95
[20]; 63 g ai/ha
  Pre-emerge Herbicidal Activity RICE: 50
[20]; 250 g ai/ha
  Pre-emerge Herbicidal Activity RICE: 85
[21]; 63 g ai/ha
  phytotoxicity rating CORN (crop damage): 80
[21]; 250 g ai/ha
  phytotoxicity rating CORN (crop damage): 100
[22]; 63 g ai/ha
  phytotoxicity rating RICE (crop damage): 60
[22]; 250 g ai/ha
  phytotoxicity rating RICE (crop damage): 85

## COc1c(Cl)cc(F)c(-n2c(=O)cc(C(F)(F)F)n(C)c2=O)c1NC(=O)OCc1ccc(F)c(F)c1 [4-30]
[1]; 63 g ai/ha
  Pre-emerge Herbicidal Activity IPOHE: 60
[1]; 250 g ai/ha
  Pre-emerge Herbicidal Activity IPOHE: 100
[2]; 63 g ai/ha
  Pre-emerge Herbicidal Activity DIGSA: 90
[2]; 250 g ai/ha
  Pre-emerge Herbicidal Activity DIGSA: 100
[3]; 63 g ai/ha
  Pre-emerge Herbicidal Activity CHEAL: 100
[3]; 250 g ai/ha
  Pre-emerge Herbicidal Activity CHEAL: 100
[4]; 63 g ai/ha
  Pre-emerge Herbicidal Activity CASOB: 90
[4]; 250 g ai/ha
  Pre-emerge Herbicidal Activity CASOB: 95
[5]; 63 g ai/ha
  Pre-emerge Herbicidal Activity ABUTH: 100
[5]; 250 g ai/ha
  Pre-emerge Herbicidal Activity ABUTH: 100
[6]; 63 g ai/ha
  Pre-emerge Herbicidal Activity ECHCG: 60
[6]; 250 g ai/ha
  Pre-emerge Herbicidal Activity ECHCG: 90
[7]; 63 g ai/ha
  Pre-emerge Herbicidal Activity SORHA: 30
[7]; 250 g ai/ha
  Pre-emerge Herbicidal Activity SORHA: 80
[8]; 63 g ai/ha
  Pre-emerge Herbicidal Activity SETVI: 100
[8]; 250 g ai/ha
  Pre-emerge Herbicidal Activity SETVI: 100
[9]; [23]
  phytotoxicity rating AMARE: 100
[9]; [24]
  phytotoxicity rating AMARE: 100
[10]; 63 g ai/ha
  phytotoxicity rating IPOHE: 100
[10]; 250 g ai/ha
  phytotoxicity rating IPOHE: 100
[11]; 63 g ai/ha
  phytotoxicity rating DIGSA: 50
[11]; 250 g ai/ha
  phytotoxicity rating DIGSA: 85
[12]; 63 g ai/ha
  phytotoxicity rating CHEAL: 100
[12]; 250 g ai/ha
  phytotoxicity rating CHEAL: 100
[13]; 63 g ai/ha
  phytotoxicity rating CASOB: 100
[13]; 250 g ai/ha
  phytotoxicity rating CASOB: 100
[14]; 63 g ai/ha
  phytotoxicity rating ABUTH: 100
[14]; 250 g ai/ha
  phytotoxicity rating ABUTH: 100
[15]; 63 g ai/ha
  phytotoxicity rating ECHCG: 50
[15]; 250 g ai/ha
  phytotoxicity rating ECHCG: 90
[16]; 63 g ai/ha
  phytotoxicity rating SORHA: 50
[16]; 250 g ai/ha
  phytotoxicity rating SORHA: 100
[17]; 63 g ai/ha
  phytotoxicity rating SETVI: 80
[17]; 250 g ai/ha
  phytotoxicity rating SETVI: 100
[18]; 63 g ai/ha
  Pre-emerge Herbicidal Activity AMARE: 100
[18]; 250 g ai/ha
  Pre-emerge Herbicidal Activity AMARE: 100
[19]; 63 g ai/ha
  Pre-emerge Herbicidal Activity CORN: 30
[19]; 250 g ai/ha
  Pre-emerge Herbicidal Activity CORN: 70
[20]; 63 g ai/ha
  Pre-emerge Herbicidal Activity RICE: 90
[20]; 250 g ai/ha
  Pre-emerge Herbicidal Activity RICE: 90
[21]; 63 g ai/ha
  phytotoxicity rating CORN (crop damage): 90
[21]; 250 g ai/ha
  phytotoxicity rating CORN (crop damage): 99
[22]; 63 g ai/ha
  phytotoxicity rating RICE (crop damage): 80
[22]; 250 g ai/ha
  phytotoxicity rating RICE (crop damage): 85
